Assay results: patent publication US5693524A, “Anticoccidial composition of UK-61 689 and Actinomadura mycelium” (Pfizer Inc., priority 1995, dated 1997)
In brackets after ≈: the same amount, converted by molar mass. Where two headings read alike, the source gives them in different places.

Experiments:
coccidiosis = conditions: EP application 169011; cited from earlier work
E. necatrix = assay: Efficacy against coccidial infection in chickens, E. necatrix (lesion scores 0 to 3); conditions: in diet at levels of 15 to 120 ppm
E. brunetti = assay: Efficacy against coccidial infection in chickens, E. brunetti (lesion scores 0 to 3); conditions: in diet at levels of 15 to 120 ppm
Eimeria tenella = assay: Efficacy against coccidial infection in chickens, Eimeria tenella (lesion scores 0 to 4); conditions: in diet at levels of 15 to 120 ppm
[1] = tested on: coccidial infections in poultry; assay: Activity against coccidial infections in poultry (lesion scores)
[2] = tested on: Gram-positive microorganisms; assay: Inhibitory action against growth of Gram-positive microorganisms in vitro; assay type: cell-based
Procedure: In Table I, below, the results of in vitro tests are summarized. For this test each organism is inoculated in a series of test tubes containing nutrient medium and varying concentrations of Antibiotic UK-61,689 to determine the minimal concentration of the compound in g/ml which inhibits the growth of the organism over a period of 24 hours (MIC).

Clostridium perfringens = assay: microbe, parasite or virus in culture; assay type: cell-based; conditions: 24 h
E. acervulina = assay: Efficacy against coccidial infection in chickens, E. acervulina (lesion scores 0 to 3); conditions: in diet at levels of 15 to 120 ppm, evaluated after five days
Actinomyces pyogenes = assay: In vitro minimal inhibitory concentration (MIC), Actinomyces pyogenes; assay type: cell-based; conditions: 24 hours
E. maxima = assay: Efficacy against coccidial infection in chickens, E. maxima (lesion scores 0 to 3); conditions: in diet at levels of 15 to 120 ppm
Treponema hyodysenteriae = assay: In vitro minimal inhibitory concentration (MIC), Treponema hyodysenteriae; assay type: cell-based

## COC1CCC(OC2CC(C3OC(C)(O)C(C)CC3C)OC2C2(C)CCC(C3(C)CCC4(CC(O)C(C)C(C(C)C5OC(O)(CC(=O)O)C(C)C(OC6CCC(OC)C(C)O6)C5OC)O4)O3)O2)OC1C (stereo not shown) [UK-58,852]
coccidiosis
  antibiotic / anticoccidial effectiveness: effective antibiotic, especially anticoccidial agent

## COC1CCC(OC2CC(C3OC(C)(OC)C(C)CC3C)OC2C2(C)CCC(C3(C)CCC4(CC(O)C(C)C(C(C)C5OC(O)(CC(=O)O)C(C)C(OC6CCC(OC)C(C)O6)C5OC)O4)O3)O2)OC1C (stereo not shown) [CP-70,228]
coccidiosis
  antibiotic / anticoccidial effectiveness: antibiotically effective in controlling coccidiosis

## COC1CCC(OC2CC(C3OC(C)(OC)C(C)CC3C)OC2C2(C)CCC(C3(C)CCC4(CC(OC)C(C)C(C(C)C5OC(O)(CC(=O)O)C(C)C(OC6CCC(OC)C(C)O6)C5OC)O4)O3)O2)OC1C (stereo not shown) [CP-70,828]
coccidiosis
  antibiotic / anticoccidial effectiveness: antibiotically effective in controlling coccidiosis

## COC1CCC(OC2CC(C3OC(C)(O)C(C)CC3C)OC2C2(C)CCC(C3(C)CCC4(CC(O)C(C)C(C(C)C5OC(O)(CC(=O)O)C(C)C(O)C5OC)O4)O3)O2)OC1C (stereo not shown) [UK-61,689]
E. necatrix
  controlling infections due to E. necatrix: effective in controlling infections
E. brunetti
  controlling infections due to E. brunetti: effective in controlling infections
Eimeria tenella
  controlling infections due to Eimeria tenella: effective in controlling infections
[1]
  activity against coccidial infections in poultry: excellent activity
[2]
  inhibitory action against the growth of Gram-positive microorganisms: exhibits inhibitory action against the growth of a number of Gram-positive microorganisms
Clostridium perfringens; Clostridium perfringens strain 10A006
  MIC: 50 µg/mL (≈ 57.3 µM)
Clostridium perfringens; Clostridium perfringens strain 10A009
  MIC: 12.5 µg/mL (≈ 14.3 µM)
E. acervulina
  controlling infections due to E. acervulina: effective in controlling infections
Actinomyces pyogenes; Actinomyces pyogenes strain 14D008
  MIC: 50 µg/mL (≈ 57.3 µM)
Actinomyces pyogenes; Actinomyces pyogenes strain 14D011
  MIC: 50 µg/mL (≈ 57.3 µM)
Actinomyces pyogenes; Trueperella pyogenes, Actinomyces pyogenes strain 14D002, read-out: MIC
  MIC: 50 µg/mL (≈ 57.3 µM)
E. maxima
  controlling infections due to E. maxima: effective in controlling infections
Treponema hyodysenteriae; Brachyspira hyodysenteriae, 24 h, Treponema hyodysenteriae strain 94A001
  MIC: 3.12 µg/mL (≈ 3.57 µM)
Treponema hyodysenteriae; Brachyspira hyodysenteriae, 24 h, Treponema hyodysenteriae strain 94A002
  MIC: 3.12 µg/mL (≈ 3.57 µM)
Treponema hyodysenteriae; Brachyspira hyodysenteriae, Treponema hyodysenteriae strain 94A007, 24 hours, read-out: MIC
  MIC: 1.56 µg/mL (≈ 1.79 µM)
Treponema hyodysenteriae; Treponema hyodysenteriae strain 94A008, 24 hours
  MIC: 1.56 µg/mL (≈ 1.79 µM)
